Read-outs that look alike come from different tables or passages of the source.
Tests used:
Format in all cases: cell-based
HT-29 = assay: Cell viability (CellTiter-Glo) cytotoxicity assay, INBRX-109 x onvansertib matrix, 48 h; details: for Max Cytotox at 200 nM: HT-29; for EC50: Homo sapiens, HT-29, HT-29
Procedure: (§1) Monolayer cultures of each cell line were harvested for compound screening as detailed below.
(§2) Onvansertib: A 10 mg stock of onvansertib was purchased from Selleck Chemicals and was resuspended to 10 mM in DMSO. This was then aliquoted and stored at −80° C. Aliquots were thawed immediately prior to dilution and use in the assay. A 500× master plate of serial dilutions (6-point 5-fold dilutions in 100% DMSO starting at 500 μM, plus a DMSO only control) was prepared and mixed gently with a pipette. To generate a 5× working dilution plate of onvansertib, a 1:100 dilution was performed from the 500× plate into complete media (EMEM).
(§3) Also on day 2, test and control articles were added.
(§4) On day 4, viability measurements were taken. […] Data was graphed in GraphPad Prism 9.

LS174T = assay: as above; details: for EC50: Homo sapiens
Procedure: as §1, §2, §3, §4

LS411N = assay: as above; details: for EC50: Homo sapiens, LS-411N
Procedure: as §1, §2, §3, §4

SW1463 = assay: as above; details: for EC50: Homo sapiens, SW1463, SW1463; for Max Cytotox at 200 nM: SW1463
Procedure: as §1, §2, §3, §4

SW620 = assay: as above; details: for EC50: Homo sapiens, SW-620, SW620; for Max Cytotox at 200 nM: SW620
Procedure: as §1, §2, §3, §4

SW837 = assay: as above; details: for EC50: Homo sapiens, SW837, SW837; for Max Cytotox at 200 nM: SW837
Procedure: as §1, §2, §3, §4

LS 1034 = assay: Cytotoxicity assay, colorectal cancer cell line panel, onvansertib +/- 1 nM INBRX-109; details: for EC50: Homo sapiens, LS-1034, LS 1034; for Max Cytotox at 600 nM: LS 1034
Procedure: as §1, §3, §4
(§5) The results for a panel of colorectal cancer cell lines are shown in Table 3 and FIGS. 4-6, and the results for a panel of pancreatic cell lines are shown in Table 4 and FIGS. 7 and 8.

SNU-C2A = assay: as above
Procedure: as §1, §3, §4, §5

AsPC-1 = assay: Cytotoxicity assay, pancreatic cell line panel, onvansertib +/- 1 nM INBRX-109; details: for Max Cytotox at 600 nM: AsPC-1; for EC50: Homo sapiens, ASPC1, AsPC-1
Procedure: as §1, §3, §4, §5

BxPC-3 = assay: as above; details: for Max Cytotox at 600 nM: BxPC-3; for EC50: Homo sapiens, BXPC-3, BxPC-3
Procedure: as §1, §3, §4, §5

CFPAC-1 = assay: as above; details: for Max Cytotox at 600 nM: CFPAC-1; for EC50: Homo sapiens, CFPAC-1, CFPAC-1
Procedure: as §1, §3, §4, §5

Capan-1 = assay: as above; details: for Max Cytotox at 600 nM: Capan-1; for EC50: Homo sapiens, CAPAN-1, Capan-1
Procedure: as §1, §3, §4, §5

Capan-2 = assay: as above; details: for Max Cytotox at 600 nM: Capan-2; for EC50: Homo sapiens, Capan-2, Capan-2
Procedure: as §1, §3, §4, §5

HPAF-II = assay: as above; details: for EC50: Homo sapiens
Procedure: as §1, §3, §4, §5

HuP-T4 = assay: as above; details: for EC50: Homo sapiens, HuP-T4, HuP-T4; for Max Cytotox at 600 nM: HuP-T4
Procedure: as §1, §3, §4, §5

KP4 = assay: as above; details: for EC50: Homo sapiens, KP-4, KP4; for Max Cytotox at 600 nM: KP4
Procedure: as §1, §3, §4, §5

MIA PaCa-2 = assay: as above; details: for EC50: Homo sapiens, MIA PaCa-2, MIA PaCa-2; for Max Cytotox at 600 nM: MIA PaCa-2
Procedure: as §1, §3, §4, §5

PANC-1 = assay: as above; details: for EC50: Homo sapiens, PANC-1, PANC-1; for Max Cytotox at 600 nM: PANC-1
Procedure: as §1, §3, §4, §5

PL45 = assay: as above; details: for EC50: PL45, PL45; for Max Cytotox at 600 nM: PL45
Procedure: as §1, §3, §4, §5

PSN-1 = assay: as above; details: for EC50: Homo sapiens, PSN1, PSN-1; for Max Cytotox at 600 nM: PSN-1
Procedure: as §1, §3, §4, §5

Panc 03.27 = assay: as above; details: for EC50: Homo sapiens, PANC-03-27, Panc 03.27; for Max Cytotox at 600 nM: Panc 03.27
Procedure: as §1, §3, §4, §5

Panc 05.04 = assay: as above; details: for EC50: Panc 05.04, Panc 05.04; for Max Cytotox at 600 nM: Panc 05.04
Procedure: as §1, §3, §4, §5

Panc 10.05 = assay: as above; details: for EC50: Homo sapiens, Panc1005, Panc 10.05; for Max Cytotox at 600 nM: Panc 10.05
Procedure: as §1, §3, §4, §5

SU.86.86 = assay: as above; details: for EC50: Homo sapiens, SU.86.86, SU.86.86; for Max Cytotox at 600 nM: SU.86.86
Procedure: as §1, §3, §4, §5

SW-1990 = assay: as above; details: for EC50: Homo sapiens, SW1990, SW-1990; for Max Cytotox at 600 nM: SW-1990
Procedure: as §1, §3, §4, §5

CN1CCN(c2ccc(OC(F)(F)F)c(Nc3ncc4c(n3)-c3c(c(C(N)=O)nn3CCO)CC4)c2)CC1 [Onvansertib]
Max Cytotox at 200 nM (HT-29; onvansertib + 1 nM INBRX-109): 94.63%
Max Cytotox at 200 nM (HT-29; onvansertib only): 5.54%
EC50 (HT-29; onvansertib + 1 nM INBRX-109): 0.0214 µM
EC50 (HT-29; onvansertib only): ~0.0023 µM
EC50 (LS174T; onvansertib + 1 nM INBRX-109): ~0.0547 µM
EC50 (LS174T; onvansertib only): ~0.197 µM
Max Cytotox at 200 nM (LS174T; onvansertib + 1 nM INBRX-109): 79.32%
Max Cytotox at 200 nM (LS174T; onvansertib only): 16.93%
EC50 (LS411N; onvansertib + 1 nM INBRX-109, read-out: EC50): ~0.0103 µM
EC50 (LS411N; onvansertib only, read-out: EC50): ~4150 µM
Max Cytotox at 200 nM (LS411N; onvansertib + 1 nM INBRX-109): 84.45%
Max Cytotox at 200 nM (LS411N; onvansertib only): 12.35%
EC50 (SW1463; onvansertib + 1 nM INBRX-109): ~0.0382 µM
EC50 (SW1463; onvansertib only): 0.124 µM
Max Cytotox at 200 nM (SW1463; onvansertib + 1 nM INBRX-109): 74.39%
Max Cytotox at 200 nM (SW1463; onvansertib only): 25.79%
EC50 (SW620; onvansertib + 1 nM INBRX-109): 0.0305 µM
EC50 (SW620; onvansertib only): 0.0313 µM
Max Cytotox at 200 nM (SW620; onvansertib + 1 nM INBRX-109): 87.53%
Max Cytotox at 200 nM (SW620; onvansertib only): 51.37%
EC50 (SW837; onvansertib + 1 nM INBRX-109): ~0.0432 µM
EC50 (SW837; onvansertib only): 27.2 µM
Max Cytotox at 200 nM (SW837; onvansertib + 1 nM INBRX-109): 80.64%
Max Cytotox at 200 nM (SW837; onvansertib only): 27.17%
EC50 (LS 1034; onvansertib + 1 nM INBRX-109): 0.199 µM
EC50 (LS 1034; onvansertib only): 0.237 µM
Max Cytotox at 600 nM (LS 1034; onvansertib + 1 nM INBRX-109): 85.8%
Max Cytotox at 600 nM (LS 1034; onvansertib only): 38.8%
EC50 (SNU-C2A; onvansertib + 1 nM INBRX-109): 0.0429 µM
Max Cytotox at 600 nM (SNU-C2A; onvansertib + 1 nM INBRX-109): 78.0%
EC50 (SNU-C2A; onvansertib only): 0.0727 µM
Max Cytotox at 600 nM (SNU-C2A; onvansertib only): 42.9%
Max Cytotox at 600 nM (AsPC-1; onvansertib + 1 nM INBRX-109): 60.0%
Max Cytotox at 600 nM (AsPC-1; onvansertib only): 19.9%
EC50 (AsPC-1; onvansertib + 1 nM INBRX-109): 0.23 µM
EC50 (AsPC-1; onvansertib only): 0.444 µM
Max Cytotox at 600 nM (BxPC-3; onvansertib + 1 nM INBRX-109): 91.8%
Max Cytotox at 600 nM (BxPC-3; onvansertib only): 70.1%
EC50 (BxPC-3; onvansertib + 1 nM INBRX-109): 0.119 µM
EC50 (BxPC-3; onvansertib only): 0.139 µM
Max Cytotox at 600 nM (CFPAC-1; onvansertib + 1 nM INBRX-109): 86.4%
Max Cytotox at 600 nM (CFPAC-1; onvansertib only): 45.3%
EC50 (CFPAC-1; onvansertib + 1 nM INBRX-109): 0.154 µM
EC50 (CFPAC-1; onvansertib only): 0.135 µM
Max Cytotox at 600 nM (Capan-1; onvansertib + 1 nM INBRX-109): 94.3%
Max Cytotox at 600 nM (Capan-1; onvansertib only): 27.8%
EC50 (Capan-1; onvansertib + 1 nM INBRX-109): 0.079 µM
EC50 (Capan-1; onvansertib only): 0.186 µM
Max Cytotox at 600 nM (Capan-2; onvansertib + 1 nM INBRX-109): 46.2%
Max Cytotox at 600 nM (Capan-2; onvansertib only): 3.9%
EC50 (Capan-2; onvansertib + 1 nM INBRX-109): 0.135 µM
EC50 (Capan-2; onvansertib only): 0.15 µM
EC50 (HPAF-II; onvansertib + 1 nM INBRX-109): 0.0519 µM
EC50 (HPAF-II; onvansertib only): 0.0633 µM
Max Cytotox at 600 nM (HPAF-II; onvansertib + 1 nM INBRX-109): 68.2%
Max Cytotox at 600 nM (HPAF-II; onvansertib only): 27.2%
EC50 (HuP-T4; onvansertib + 1 nM INBRX-109): 0.0351 µM
EC50 (HuP-T4; onvansertib only): 0.138 µM
Max Cytotox at 600 nM (HuP-T4; onvansertib + 1 nM INBRX-109): 85.3%
Max Cytotox at 600 nM (HuP-T4; onvansertib only): 33.7%
EC50 (KP4; onvansertib + 1 nM INBRX-109): 0.0824 µM
EC50 (KP4; onvansertib only): 0.105 µM
Max Cytotox at 600 nM (KP4; onvansertib + 1 nM INBRX-109): 97.8%
Max Cytotox at 600 nM (KP4; onvansertib only): 74.7%
EC50 (MIA PaCa-2; onvansertib + 1 nM INBRX-109): 0.0813 µM
EC50 (MIA PaCa-2; onvansertib only): 0.179 µM
Max Cytotox at 600 nM (MIA PaCa-2; onvansertib + 1 nM INBRX-109): 96.4%
Max Cytotox at 600 nM (MIA PaCa-2; onvansertib only): 67.0%
EC50 (PANC-1; onvansertib + 1 nM INBRX-109): 0.121 µM
EC50 (PANC-1; onvansertib only): 0.152 µM
Max Cytotox at 600 nM (PANC-1; onvansertib + 1 nM INBRX-109): 87.2%
Max Cytotox at 600 nM (PANC-1; onvansertib only): 36.2%
EC50 (PL45; onvansertib + 1 nM INBRX-109): 0.0681 µM
EC50 (PL45; onvansertib only): 0.0836 µM
Max Cytotox at 600 nM (PL45; onvansertib + 1 nM INBRX-109): 82.2%
Max Cytotox at 600 nM (PL45; onvansertib only): 56.5%
EC50 (PSN-1; onvansertib + 1 nM INBRX-109): 0.063 µM
EC50 (PSN-1; onvansertib only): 0.0853 µM
Max Cytotox at 600 nM (PSN-1; onvansertib + 1 nM INBRX-109): 98.0%
Max Cytotox at 600 nM (PSN-1; onvansertib only): 83.2%
EC50 (Panc 03.27; onvansertib + 1 nM INBRX-109): 0.09 µM
EC50 (Panc 03.27; onvansertib only): 0.121 µM
Max Cytotox at 600 nM (Panc 03.27; onvansertib + 1 nM INBRX-109): 87.5%
Max Cytotox at 600 nM (Panc 03.27; onvansertib only): 36.7%
EC50 (Panc 05.04; onvansertib + 1 nM INBRX-109): 0.0611 µM
EC50 (Panc 05.04; onvansertib only): 0.205 µM
Max Cytotox at 600 nM (Panc 05.04; onvansertib + 1 nM INBRX-109): 97.4%
Max Cytotox at 600 nM (Panc 05.04; onvansertib only): 44.4%
EC50 (Panc 10.05; onvansertib + 1 nM INBRX-109): 0.0817 µM
EC50 (Panc 10.05; onvansertib only): 0.0819 µM
Max Cytotox at 600 nM (Panc 10.05; onvansertib + 1 nM INBRX-109): 83.3%
Max Cytotox at 600 nM (Panc 10.05; onvansertib only): 47.2%
EC50 (SU.86.86; onvansertib + 1 nM INBRX-109): 0.0914 µM
EC50 (SU.86.86; onvansertib only): 0.629 µM
Max Cytotox at 600 nM (SU.86.86; onvansertib + 1 nM INBRX-109): 98.9%
Max Cytotox at 600 nM (SU.86.86; onvansertib only): 30.5%
EC50 (SW-1990; onvansertib + 1 nM INBRX-109): 0.598 µM
EC50 (SW-1990; onvansertib only): 0.7 µM
Max Cytotox at 600 nM (SW-1990; onvansertib + 1 nM INBRX-109): 68.7%
Max Cytotox at 600 nM (SW-1990; onvansertib only): 13.4%

Source: US20250215101A1, “DR5 Agonist and PLK1 Inhibitor or CDK Inhibitor Combination Therapy” (Inhibrx Biosciences, Inc., priority 2022, published 2025)
